pKi: −log10 of the molar value.
How the values were obtained:
[1] = tested on: hair growth; conditions: topical, but not oral, application; cited from earlier work
[2] = target: FKBP12 (Homo sapiens, UniProt P62942); test: Ki test procedure: inhibition of peptidyl-prolyl isomerase (rotamase) activity, chymotrypsin-coupled assay; type: biochemical; conditions: apparent Ki
Source text: The inhibition of the prolyl peptidyl cis-trans isomerase activity of FKBP may be measured as an indicator of this affinity.
Inhibition of the peptidyl-prolyl isomerase (rotamase) activity of the compounds used in the inventive methods and pharmaceutical compositions can be evaluated by known methods described in the literature (Harding et al., Nature, 1989, 341:758-760; Holt et al. J. Am. Chem. Soc., 115:9923-9938). These values are obtained as apparent Ki's and are presented for representative compounds in TABLE II.
The cis-trans isomerization of an alanine-proline bond in a model substrate, N-succinyl-Ala-Ala-Pro-Phe-p-nitroanilide, is monitored spectrophotometrically in a chymotrypsin-coupled assay, which releases para-nitroanilide from the trans form of the substrate. The inhibition of this reaction caused by the addition of different concentrations of inhibitor is determnined, and the data is analyzed as a change in first-order rate constant as a function of inhibitor concentration to yield the apparent Ki values.
In a plastic cuvette are added […] of ice cold assay buffer (25 mM HEPES, pH 7.8, 100 mM NaCl), 10 mL of FKBP (2.5 mM in 10 mM Tris-Cl pH 7.5, 100 mM NaCl, 1 mM dithiothreitol), […] of chymotrypsin (50 mg/ml in 1 mM HCl) and […] of test compound at various concentrations in dimethyl sulfoxide. The reaction is initiated by the addition of 5 mL of substrate (succinyl-Ala-Phe-Pro-Phe-para-nitroanilide, 5 mg/mL in 2.35 mM LiCl in trifluoroethanol).
The absorbance at 390 nm versus time is monitored for 90 seconds using a spectrophotometer and the rate constants are determined from the absorbance versus time data files.

FKBP12, sequence (P62942 whole entry, species assumed): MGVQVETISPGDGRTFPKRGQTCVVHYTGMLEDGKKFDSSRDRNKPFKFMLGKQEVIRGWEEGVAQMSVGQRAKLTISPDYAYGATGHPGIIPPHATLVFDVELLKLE

Compound | hair growth stimulation [1] | pKi [2]
C=CC[C@@H]1/C=C(\C)C[C@H](C)C[C@H](OC)[C@H]2O[C@@](O)(C(=O)C(=O)N3CCCC[C@H]3C(=O)O[C@H](/C(C)=C/[C@@H]3CC[C@@H](O)[C@H](OC)C3)[C@H](C)[C@@H](O)CC1=O)[C@H](C)C[C@@H]2OC [FK506] | stimulates hair growth in a dose-dependent manner | 
O=C(OC(CCc1ccccc1)CCc1ccccc1)C1CCCCN1S(=O)(=O)Cc1ccccc1 (stereo not drawn) [Compound 2, 1,5-diphenyl-3-pentyl-N-(α-toluene-sulfonyl)pipecolate] |  | 7.47
O=C(OCCCc1cccnc1)[C@@H]1CCCN1S(=O)(=O)Cc1ccccc1 [Compound 4, 3-(3-pyridyl)-1-propyl-(2S)-N-(α-toluenesulfonyl)pyrrolidine-2-carboxylate] |  | 6.48
O=C(OCCCCc1ccccc1)C1CCCCN1S(=O)(=O)Cc1ccccc1 (stereo not drawn) [Compound 7, 4-phenyl-1-butyl-N-(α-toluene-sulfonyl)pipecolate] |  | 6.90
O=C(OCCCCc1ccccc1)C1CCCCN1S(=O)(=O)Cc1ccccc1 (racemic) [Compound 1, 4-phenyl-1-butyl-1-(benzylsulfonyl)-(2R,S)-2-pipecolinate] |  | 7.14

Source: patent publication US20010029261A1, “Small molecule sulfonamide hair growth compositions and uses” (GUILFORD PHARMACEUTICALS INC., priority 1997, published 2001)
